Publication PMC7180948, “New Insights into 4-Anilinoquinazolines as Inhibitors of Cardiac Troponin I–Interacting Kinase (TNNi3K)” (Molecules, 2020)

Legend:
Assay in all cases: biochemical
Design in all cases: KINOMEscan competition binding panel (Eurofins DiscoverX), single concentration, percent inhibition
Conditions in all cases: read-out: 15 at 1 µM % inhibition
ERK8 = target: T1, ERK8 (Homo sapiens, UniProt Q8TD08)
T1 construct: gene MAPK15
How it was run: (§1)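 Kinome-wide profiling (KINOMEscan, >400 human kinases) was run at 1 µM compound.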

YANK3 = target: T2, YANK3 (Homo sapiens, UniProt Q86UX6)
T2 construct: gene STK32C
How it was run: as §1

FLT3(R834Q) = FLT3(R834Q) (Homo sapiens, UniProt P36888, R834Q)
How it was run: as §1

FGFR3(G697C) = FGFR3(G697C) (Homo sapiens, UniProt P22607, G697C)
How it was run: as §1

EPHA4 = EPHA4 (Homo sapiens, UniProt P54764)
How it was run: as §1

[1] = target: T3, ABL1(F317I)-phosphorylated (Homo sapiens, UniProt P00519, F317I)
T3 construct: phosphorylated
How it was run: as §1

ALK(L1196M) = ALK(L1196M) (Homo sapiens, UniProt Q9UM73, L1196M)
How it was run: as §1

EPHA3 = EPHA3 (Homo sapiens, UniProt P29320)
How it was run: as §1

KIT(A829P) = KIT(A829P) (Homo sapiens, UniProt P10721, A829P)
How it was run: as §1

JNK2 = target: T4, JNK2 (Homo sapiens, UniProt P45984)
T4 construct: gene MAPK9
How it was run: as §1

MYLK4 = MYLK4 (Homo sapiens, UniProt Q86YV6)
How it was run: as §1

CAMKK1 = CAMKK1 (Homo sapiens, UniProt Q8N5S9)
How it was run: as §1

MYO3B = MYO3B (Homo sapiens, UniProt Q8WXR4)
How it was run: as §1

PIK3CA(E542K) = PIK3CA(E542K) (Homo sapiens, UniProt P42336, E542K)
How it was run: as §1

PAK4 = PAK4 (Homo sapiens, UniProt O96013)
How it was run: as §1

NEK1 = NEK1 (Homo sapiens, UniProt Q96PY6)
How it was run: as §1

PIK3CA(H1047L) = PIK3CA(H1047L) (Homo sapiens, UniProt P42336, H1047L)
How it was run: as §1

PAK2 = PAK2 (Homo sapiens, UniProt Q13177)
How it was run: as §1

RET(M918T) = RET(M918T) (Homo sapiens, UniProt P07949, M918T)
How it was run: as §1

MAP3K2 = MAP3K2 (Homo sapiens, UniProt Q9Y2U5)
How it was run: as §1

NEK5 = NEK5 (Homo sapiens, UniProt Q6P3R8)
How it was run: as §1

ERK3 = target: T5, ERK3 (Homo sapiens, UniProt Q16659)
T5 construct: gene MAPK6
How it was run: as §1

CDK9 = CDK9 (Homo sapiens, UniProt P50750)
How it was run: as §1

TAOK3 = TAOK3 (Homo sapiens, UniProt Q9H2K8)
How it was run: as §1

Sequence of TAOK3 (Q9H2K8 whole entry): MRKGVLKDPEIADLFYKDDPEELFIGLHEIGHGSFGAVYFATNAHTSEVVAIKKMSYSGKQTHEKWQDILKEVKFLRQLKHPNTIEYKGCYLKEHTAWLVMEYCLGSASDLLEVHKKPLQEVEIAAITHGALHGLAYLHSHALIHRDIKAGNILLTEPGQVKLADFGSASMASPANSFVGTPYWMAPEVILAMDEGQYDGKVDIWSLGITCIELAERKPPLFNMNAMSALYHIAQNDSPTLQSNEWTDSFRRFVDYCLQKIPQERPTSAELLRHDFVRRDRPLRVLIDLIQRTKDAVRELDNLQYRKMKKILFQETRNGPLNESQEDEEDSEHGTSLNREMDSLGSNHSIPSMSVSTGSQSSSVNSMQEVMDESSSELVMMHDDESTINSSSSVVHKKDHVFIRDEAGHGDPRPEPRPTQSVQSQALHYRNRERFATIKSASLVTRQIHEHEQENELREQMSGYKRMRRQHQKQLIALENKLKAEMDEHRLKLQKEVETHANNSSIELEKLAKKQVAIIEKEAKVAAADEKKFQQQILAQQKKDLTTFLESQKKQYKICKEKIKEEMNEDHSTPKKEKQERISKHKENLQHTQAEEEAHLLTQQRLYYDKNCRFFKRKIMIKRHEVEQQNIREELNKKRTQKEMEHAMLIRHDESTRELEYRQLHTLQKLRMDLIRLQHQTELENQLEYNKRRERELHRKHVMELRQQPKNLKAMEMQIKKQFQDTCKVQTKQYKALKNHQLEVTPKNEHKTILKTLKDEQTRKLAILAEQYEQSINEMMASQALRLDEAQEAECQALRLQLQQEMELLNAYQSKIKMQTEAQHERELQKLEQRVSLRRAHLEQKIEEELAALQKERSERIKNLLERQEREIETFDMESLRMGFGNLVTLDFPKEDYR
Sequence of MYO3B (Q8WXR4 whole entry): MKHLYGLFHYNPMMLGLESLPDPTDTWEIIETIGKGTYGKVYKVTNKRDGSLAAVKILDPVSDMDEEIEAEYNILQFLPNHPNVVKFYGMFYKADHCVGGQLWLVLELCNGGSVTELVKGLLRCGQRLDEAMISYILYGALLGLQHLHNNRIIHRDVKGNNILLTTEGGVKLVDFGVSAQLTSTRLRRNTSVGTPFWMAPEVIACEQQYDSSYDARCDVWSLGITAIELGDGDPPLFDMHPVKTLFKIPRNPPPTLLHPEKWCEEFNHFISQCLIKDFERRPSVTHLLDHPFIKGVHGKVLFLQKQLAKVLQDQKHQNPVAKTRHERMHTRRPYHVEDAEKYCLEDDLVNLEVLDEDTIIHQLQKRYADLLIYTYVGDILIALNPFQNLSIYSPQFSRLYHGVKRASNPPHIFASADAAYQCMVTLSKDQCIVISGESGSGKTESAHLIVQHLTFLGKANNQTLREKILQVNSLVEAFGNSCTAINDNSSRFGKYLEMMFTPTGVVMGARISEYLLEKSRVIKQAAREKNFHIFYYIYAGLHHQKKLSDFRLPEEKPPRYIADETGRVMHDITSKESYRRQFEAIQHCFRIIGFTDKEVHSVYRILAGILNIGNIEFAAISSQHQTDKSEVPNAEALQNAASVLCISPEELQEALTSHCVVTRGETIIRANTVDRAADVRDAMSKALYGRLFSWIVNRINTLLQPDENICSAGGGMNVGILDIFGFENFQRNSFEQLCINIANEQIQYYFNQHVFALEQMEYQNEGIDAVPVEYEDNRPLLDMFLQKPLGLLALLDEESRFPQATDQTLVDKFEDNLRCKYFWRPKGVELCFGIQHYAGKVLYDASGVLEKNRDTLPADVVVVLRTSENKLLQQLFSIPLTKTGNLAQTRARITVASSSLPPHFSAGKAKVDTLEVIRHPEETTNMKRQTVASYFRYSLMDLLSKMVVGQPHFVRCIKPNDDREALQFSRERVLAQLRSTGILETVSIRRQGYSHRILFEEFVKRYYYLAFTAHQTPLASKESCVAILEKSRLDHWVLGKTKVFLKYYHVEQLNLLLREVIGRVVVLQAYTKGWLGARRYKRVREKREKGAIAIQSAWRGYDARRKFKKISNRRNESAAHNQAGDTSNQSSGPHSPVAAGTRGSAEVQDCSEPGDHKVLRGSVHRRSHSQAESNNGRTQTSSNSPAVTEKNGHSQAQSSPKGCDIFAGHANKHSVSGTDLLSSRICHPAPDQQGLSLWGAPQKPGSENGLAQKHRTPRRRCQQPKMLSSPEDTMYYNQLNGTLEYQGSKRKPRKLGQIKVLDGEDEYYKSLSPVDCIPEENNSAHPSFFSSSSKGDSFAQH
Sequence of EPHA3 (P29320 whole entry): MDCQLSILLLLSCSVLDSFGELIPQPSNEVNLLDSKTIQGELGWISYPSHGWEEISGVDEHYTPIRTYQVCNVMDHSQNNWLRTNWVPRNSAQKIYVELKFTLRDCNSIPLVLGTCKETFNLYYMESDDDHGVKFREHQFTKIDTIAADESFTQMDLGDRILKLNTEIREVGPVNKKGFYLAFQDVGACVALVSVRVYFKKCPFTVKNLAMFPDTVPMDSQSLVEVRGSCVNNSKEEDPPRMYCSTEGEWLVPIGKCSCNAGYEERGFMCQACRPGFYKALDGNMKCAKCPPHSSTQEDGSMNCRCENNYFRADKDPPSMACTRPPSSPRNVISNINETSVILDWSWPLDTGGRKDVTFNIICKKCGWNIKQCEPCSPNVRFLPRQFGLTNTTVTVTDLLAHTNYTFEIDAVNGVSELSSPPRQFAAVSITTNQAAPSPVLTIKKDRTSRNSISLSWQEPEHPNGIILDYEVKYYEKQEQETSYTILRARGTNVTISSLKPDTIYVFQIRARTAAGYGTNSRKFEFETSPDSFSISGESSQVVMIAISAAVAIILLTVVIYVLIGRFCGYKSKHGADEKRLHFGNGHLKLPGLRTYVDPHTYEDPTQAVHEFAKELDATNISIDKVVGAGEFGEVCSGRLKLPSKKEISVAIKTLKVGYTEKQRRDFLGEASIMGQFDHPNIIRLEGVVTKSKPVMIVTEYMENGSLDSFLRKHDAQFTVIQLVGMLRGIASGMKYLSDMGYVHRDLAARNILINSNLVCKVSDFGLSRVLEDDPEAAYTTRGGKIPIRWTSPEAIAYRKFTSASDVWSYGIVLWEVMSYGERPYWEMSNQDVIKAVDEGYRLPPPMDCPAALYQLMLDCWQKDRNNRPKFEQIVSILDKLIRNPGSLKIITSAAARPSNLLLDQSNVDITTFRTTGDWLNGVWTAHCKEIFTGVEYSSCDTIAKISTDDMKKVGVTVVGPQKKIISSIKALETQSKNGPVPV
Sequence of FGFR3(G697C) (P22607 whole entry G697C): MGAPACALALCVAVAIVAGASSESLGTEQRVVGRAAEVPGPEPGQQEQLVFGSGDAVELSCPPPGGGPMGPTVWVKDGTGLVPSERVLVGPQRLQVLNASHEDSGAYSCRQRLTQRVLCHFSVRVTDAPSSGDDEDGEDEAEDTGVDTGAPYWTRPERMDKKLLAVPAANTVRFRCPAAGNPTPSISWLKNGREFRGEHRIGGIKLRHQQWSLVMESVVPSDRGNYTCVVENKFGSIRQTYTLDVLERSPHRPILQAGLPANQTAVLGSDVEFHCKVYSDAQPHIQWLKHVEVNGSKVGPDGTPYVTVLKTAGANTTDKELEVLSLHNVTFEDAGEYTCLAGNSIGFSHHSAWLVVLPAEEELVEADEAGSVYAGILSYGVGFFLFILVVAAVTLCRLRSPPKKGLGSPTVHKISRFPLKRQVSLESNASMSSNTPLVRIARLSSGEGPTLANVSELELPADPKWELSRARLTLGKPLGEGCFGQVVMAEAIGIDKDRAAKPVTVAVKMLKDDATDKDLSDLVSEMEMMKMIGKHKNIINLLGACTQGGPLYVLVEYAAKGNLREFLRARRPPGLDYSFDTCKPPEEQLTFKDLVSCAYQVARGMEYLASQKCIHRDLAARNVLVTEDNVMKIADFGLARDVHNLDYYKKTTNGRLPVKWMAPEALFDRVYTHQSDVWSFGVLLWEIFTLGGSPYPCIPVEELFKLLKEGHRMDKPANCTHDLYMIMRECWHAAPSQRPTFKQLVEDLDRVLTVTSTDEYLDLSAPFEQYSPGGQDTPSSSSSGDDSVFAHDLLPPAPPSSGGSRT
T4 sequence (P45984 whole entry): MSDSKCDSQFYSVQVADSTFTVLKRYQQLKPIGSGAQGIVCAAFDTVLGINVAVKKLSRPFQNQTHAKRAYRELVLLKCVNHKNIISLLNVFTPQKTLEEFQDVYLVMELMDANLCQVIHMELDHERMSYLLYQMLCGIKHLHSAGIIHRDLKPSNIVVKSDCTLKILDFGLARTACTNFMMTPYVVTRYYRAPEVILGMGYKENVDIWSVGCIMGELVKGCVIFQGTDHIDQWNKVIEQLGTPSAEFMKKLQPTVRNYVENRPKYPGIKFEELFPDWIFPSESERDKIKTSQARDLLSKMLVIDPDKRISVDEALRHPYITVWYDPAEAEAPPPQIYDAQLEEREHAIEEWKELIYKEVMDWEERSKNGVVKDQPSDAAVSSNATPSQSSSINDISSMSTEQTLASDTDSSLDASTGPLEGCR
T2 sequence (Q86UX6 whole entry): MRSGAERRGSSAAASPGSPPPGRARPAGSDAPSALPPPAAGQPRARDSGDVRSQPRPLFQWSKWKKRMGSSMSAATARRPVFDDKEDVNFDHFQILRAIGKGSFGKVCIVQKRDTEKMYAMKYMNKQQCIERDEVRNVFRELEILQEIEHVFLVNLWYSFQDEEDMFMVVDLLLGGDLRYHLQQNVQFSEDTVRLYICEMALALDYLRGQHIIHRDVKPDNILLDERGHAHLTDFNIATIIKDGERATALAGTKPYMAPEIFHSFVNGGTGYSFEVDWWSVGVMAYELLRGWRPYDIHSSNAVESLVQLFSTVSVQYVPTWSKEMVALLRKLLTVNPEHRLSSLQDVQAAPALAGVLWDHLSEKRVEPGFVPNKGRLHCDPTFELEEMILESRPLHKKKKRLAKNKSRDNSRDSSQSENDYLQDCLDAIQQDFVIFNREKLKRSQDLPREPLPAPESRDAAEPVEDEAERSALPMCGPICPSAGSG

CNS(=O)(=O)c1ccc(N(C)C)c(Nc2nc(C)nc3cc(OC)c(OC)cc23)c1 [compound 15, 3-((6,7-dimethoxy-2-methylquinazolin-4-yl)amino)-4-(dimethylamino)-N-methylbenzenesulfonamide]
inhibition at 1 µM (ERK8): 0% | inhibition at 1 µM (YANK3): 0% | inhibition at 1 µM (FLT3(R834Q)): 32% | inhibition at 1 µM (FGFR3(G697C)): 0% | inhibition at 1 µM (EPHA4): 0% | inhibition at 1 µM [1]: 22% | inhibition at 1 µM (ALK(L1196M)): 12% | inhibition at 1 µM (EPHA3): 2% | inhibition at 1 µM (KIT(A829P)): 42% | inhibition at 1 µM (JNK2): 4% | inhibition at 1 µM (MYLK4): 0% | inhibition at 1 µM (CAMKK1): 2% | inhibition at 1 µM (MYO3B): 15% | inhibition at 1 µM (PIK3CA(E542K)): 22% | inhibition at 1 µM (PAK4): 0% | inhibition at 1 µM (NEK1): 1% | inhibition at 1 µM (PIK3CA(H1047L)): 21% | inhibition at 1 µM (PAK2): 14% | inhibition at 1 µM (RET(M918T)): 0% | inhibition at 1 µM (MAP3K2): 18% | inhibition at 1 µM (NEK5): 0% | inhibition at 1 µM (ERK3): 18% | inhibition at 1 µM (CDK9): 0% | inhibition at 1 µM (TAOK3): 16%
